Test results from patent US11214803B2, “Modulators of YAP1 expression” (Ionis Pharmaceuticals, Inc., priority 2019, dated 2022).
Strand notation (5' to 3'): a small letter for the sugar, then the base; units joined by * are phosphorothioate-linked, units joined directly phosphodiester-linked; [ ] holds rarer units or linkages, { } end groups; capitals alone tell only the bases. e = 2'-O-(2-methoxyethyl) (MOE); k = constrained ethyl (cEt); [5mC] = 5-methylcytosine; d = 2'-deoxy (DNA); m = 2'-O-methyl

Experiments:
[1] = system: Yap1 mRNA; test: Antisense inhibition of human Yap1 in SNU-449 cells by modified oligonucleotides, single dose (Example 5, RTS36584); format: cell-based
In short: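 Values are % of untreated control: Yap1 mRNA by quantitative RT-PCR (RTS36584), normalized to RIBOGREEN total RNA. Oligonucleotides were dosed at 2,000 nM, free uptake, in SNU-449 cells, with roughly 48 h exposure before RNA isolation.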

[2] = system: Yap1 mRNA; test: Antisense inhibition of human Yap1 in A-431 cells by cEt gapmers, single dose (Example 2, RTS4814); format: cell-based
In short: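 Yap1 mRNA levels, by real-time RT-PCR (RTS4814) and corrected for total RNA via RIBOGREEN, are given as percent of untreated cells. Gapmers (16-mer, cEt wings, phosphorothioate, 5-methylC) were delivered without transfection at 2,000 nM to A-431 cells for about 48 hours.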

[3] = Table 48, Yap1 mRNA level relative to untreated control, modified oligonucleotides targeting SEQ ID NO.: 1 and 2
[4] = Table 39, SNU-449 cells, 10,000 cells per well, free uptake, 2,000 nM oligonucleotide, approx. 48 hours, RTS36584, normalized to RIBOGREEN, Yap1 mRNA relative to untreated control
[5] = Table 40 (separate experiment), SNU-449 cells, 10,000 cells per well, free uptake, 2,000 nM oligonucleotide, approx. 48 hours, RTS36584, normalized to RIBOGREEN, Yap1 mRNA relative to untreated control

1074728 (antisense kT*kG*kA*dG*dG*dT*dA*dT*dA*dA*d[5mC]*dT*dG*kG*kG*k[5mC]) [Compound 1074728]
YAP1 (% UT) [1, 3]: 14 % UT | YAP1 (% UTC) ([2]; Table 22, Yap1 mRNA as percent of untreated control, 3-10-3 cEt gapmers, single dose): 3 % UTC

1074726 (antisense kG*kG*kT*dA*dT*dA*dA*d[5mC]*dT*dG*dG*dG*d[5mC]*kA*kA*kA) [Compound 1074726]
YAP1 (% UT) [1, 3]: 23 % UT | YAP1 (% UTC) ([2]; Table 20, Yap1 mRNA, percent of untreated control, 3-10-3 cEt gapmers targeting SEQ ID NO.: 1 and 2): 2 % UTC

1076453 (kG*kT*kA*dA*dT*dA*dT*dT*dG*d[5mC]*dA*dA*dT*k[5mC]*kT*kG) [Compound 1076453]
YAP1 (% UT) ([1]; Yap1 mRNA, percent of untreated control, modified oligonucleotides targeting SEQ ID NO: 1 and 2, Table 47): 7 % UT | YAP1 (% UTC) ([2]; Table 19, A-431 cells, 5,000 cells per well, free uptake, 2,000 nM modified oligonucleotide, approx. 48 hours, RTS4814, normalized to RIBOGREEN, Yap1 mRNA as percent of untreated control): 1 % UTC

1074727 (antisense kG*kA*kG*dG*dT*dA*dT*dA*dA*d[5mC]*dT*dG*dG*kG*k[5mC]*kA) [Compound 1074727]
YAP1 (% UT) [1, 3]: 51 % UT | YAP1 (% UTC) ([2]; Table 21, Yap1 mRNA, percent of untreated control, 3-10-3 cEt gapmers targeting SEQ ID NO.: 1 and 2): 9 % UTC

716524 (antisense kA*k[5mC]*kT*dG*dA*dG*dG*dT*dA*dT*dA*dA*d[5mC]*kT*kG*kG) [Compound 716524]
YAP1 (% UT) [1, 3]: 59 % UT | YAP1 (% UTC) ([2]; Table 5, A-431 cells, 5,000 cells per well, free uptake, 2,000 nM modified oligonucleotide, approx. 48 hours, RTS4814, normalized to RIBOGREEN, Yap1 mRNA relative to untreated control cells): 35 % UTC

1198328 (kA*kT*kT*dT*dA*dG*dG*dA*dT*dG*d[5mC]*dA*kT*eG*kG*eT; antisense) [Compound 1198328]
YAP1 (% UT) [1, 3]: 42 % UT

1198786 (antisense kT*eG*kT*dA*dT*dG*dT*d[5mC]*dA*dG*dA*dA*eG*eA*kG*kT) [Compound 1198786]
YAP1 (% UTC) ([1]; Table 41, SNU-449 cells, 10,000 cells per well, free uptake, 2,000 nM modified oligonucleotide, approximately 48 hours, RTS36584, normalized to RIBOGREEN, Yap1 mRNA relative to untreated control cells): 16 % UTC

1198906 (kT*kA*dT*dA*dT*dT*dA*dG*dA*dG*dT*kA*dT*kG*dT*kG; antisense) [Compound 1198906]
YAP1 (% UTC) ([1]; Table 44 experiment, SNU-449 cells, 10,000 cells per well, free uptake, 2,000 nM, approximately 48 hours, RTS36584, Yap1 mRNA normalized to RIBOGREEN, relative to untreated control cells): 56 % UTC

1198450 (kT*dA*dA*dG*dT*dA*dA*dG*dG*dT*dT*kT*e[5mC]*k[5mC]*e[5mC]*kA; antisense) [Compound 1198450]
YAP1 (% UTC) [1, 4]: 42 % UTC

1198967 (kT*kA*dA*dG*dG*dT*dT*dT*d[5mC]*d[5mC]*d[5mC]*kA*dG*kA*dT*kT; antisense) [Compound 1198967]
YAP1 (% UTC) ([1]; Table 45, Yap1 mRNA as percent of untreated control, SNU-449 cells, single dose): 65 % UTC

1198395 (k[5mC]*dT*dT*dT*dT*dA*d[5mC]*dA*dT*dT*dA*kG*eG*kA*eA*k[5mC]; antisense) [Compound 1198395]
YAP1 (% UTC) [1, 4]: 35 % UTC

1198320 (kG*k[5mC]*kT*dT*dT*dG*dG*dA*dA*dG*dA*dT*k[5mC]*eT*kG*eA; antisense) [Compound 1198320]
YAP1 (% UT) [1, 3]: 26 % UT

1198472 (antisense kT*kA*dT*dA*dT*dT*dA*dG*dA*dG*dT*eA*kT*eG*kT*eG) [Compound 1198472]
YAP1 (% UTC) ([1]; Table 43 experiment, SNU-449 cells, 10,000 cells per well, free uptake, 2,000 nM, approximately 48 hours, RTS36584, Yap1 mRNA normalized to RIBOGREEN, relative to untreated control cells): 60 % UTC

1197273 (kT*kA*kA*dG*mG*dT*dT*dT*d[5mC]*d[5mC]*d[5mC]*dA*dG*kA*kT*kT) [Compound 1197273]
YAP1 (% UT) ([1]; Table 51, Yap1 mRNA remaining as percent of untreated control (UT), SNU-449 cells, single dose): 68 % UT

1198747 (kA*eG*k[5mC]*dA*d[5mC]*dT*dT*dT*dT*dA*d[5mC]*dA*eT*eT*kA*kG; antisense) [Compound 1198747]
YAP1 (% UTC) [1, 5]: 38 % UTC

1198568 (antisense kA*k[5mC]*kT*dT*dT*dT*dA*d[5mC]*dA*dT*dT*dA*kG*kG*kA*eA) [Compound 1198568]
YAP1 (% UT) ([1]; Table 49, Yap1 mRNA level relative to untreated control, modified oligonucleotides targeting SEQ ID NO.: 1 and 2): 31 % UT

1198585 (antisense kT*kT*kT*dA*dG*dG*dA*dT*dG*d[5mC]*dA*dT*kG*kG*kT*eT) [Compound 1198585]
YAP1 (% UT) ([1]; Table 50, Yap1 mRNA remaining as percent of untreated control (UT), SNU-449 cells, single dose): 22 % UT

1198720 (kT*eG*kG*dA*dA*dA*dT*dT*dG*dT*d[5mC]*dT*e[5mC]*eA*kT*kG; antisense) [Compound 1198720]
YAP1 (% UTC) [1, 5]: 21 % UTC

1198838 (kT*kT*dT*dG*dG*dA*dA*dG*dA*dT*d[5mC]*kT*eG*kA*eA*kA; antisense) [Compound 1198838]
YAP1 (% UT) ([1]; Table 46, Yap1 mRNA as percent of untreated control, SNU-449 cells, single dose): 66 % UT

1200856 (kT*kG*kT*dA*dT*mG*dT*d[5mC]*dA*dG*dA*dA*dG*kA*kG*kT; antisense) [Compound 1200856]
YAP1 (% UT) ([1]; Table 52, Yap1 mRNA, modified oligonucleotides targeting SEQ ID NO: 1 and 2): 29 % UT

1198291 (kA*kT*kG*dG*dA*dA*dA*dT*dT*dG*dT*d[5mC]*kT*e[5mC]*kA*eT; antisense) [Compound 1198291]
YAP1 (% UT) [1, 3]: 58 % UT
